Columns and labels:
[1] = system: HAP1 MTAP-intact cell line; test: SDMA in-cell western assay, HAP1 MTAP-intact; assay type: cell-based; conditions: Homo sapiens, HAP1, SDMA in-cell western, HAP1 MTAP-intact; read-out: MTAP HAP1 intact IC50
In short: (§1)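 Readout: in-cell western detection of SDMA. Cells: HAP1 expressing endogenous MTAP and an MTAP-null HAP1 counterpart. Output: IC50.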

[2] = system: HAP1 MTAP-deleted cell line; test: SDMA in-cell western assay, HAP1 MTAP-deleted; assay type: cell-based; conditions: for IC50: Homo sapiens, HAP1, SDMA in-cell western, HAP1 MTAP-deleted, read-out: HAP 1 MTAP deleted IC50; for MTAP intact/deleted ratio: IC50 ratio HAP1 MTAP-intact / HAP1 MTAP-deleted, SDMA in-cell western
In short: as §1

[3] = target: T1, PRMT5 (Homo sapiens, UniProt O14744); test: PRMT5 biochemical IC50 assay with SAM as cofactor; conditions: PRMT5, SAM as cofactor; read-out: SAM IC50
T1 construct: purchased Viva (custom protein)

[4] = system: HAP1 MTAP-deleted cell line; test: Viability assay, MTAP-deleted cell line; assay type: cell-based; conditions: Homo sapiens, HAP1, viability, HAP1 MTAP-deleted cell line; read-out: HAP1 MTAP deleted viability
Description: Table 1 additionally indicates IC50 values in a viability assay for the MTAP-deleted cell line (column 10), indicating the effect of treatment with compound on cell survival.

[5] = target: T1, PRMT5; test: PRMT5 biochemical IC50 assay with no cofactor; conditions: PRMT5, no cofactor; read-out: No Cofactor/ rel IC50
Description: Table 1 indicates IC50 values (μM) against PRMT5 for exemplary compounds in the presence of SAM as cofactor, with no cofactor, and with MTA as cofactor, respectively (columns 4-6). […] Ki values can be calculated from the IC50 values as described in the Examples section. As detailed in the Examples section, for the assay performed in the presence of SAM, IC50=Ki×1.5 (Ki=IC50/1.5).

[6] = target: T1, PRMT5; test: PRMT5 biochemical IC50 assay with MTA as cofactor; conditions: PRMT5, MTA as cofactor; read-out: MTA IC50

T1 sequence (O14744 whole entry): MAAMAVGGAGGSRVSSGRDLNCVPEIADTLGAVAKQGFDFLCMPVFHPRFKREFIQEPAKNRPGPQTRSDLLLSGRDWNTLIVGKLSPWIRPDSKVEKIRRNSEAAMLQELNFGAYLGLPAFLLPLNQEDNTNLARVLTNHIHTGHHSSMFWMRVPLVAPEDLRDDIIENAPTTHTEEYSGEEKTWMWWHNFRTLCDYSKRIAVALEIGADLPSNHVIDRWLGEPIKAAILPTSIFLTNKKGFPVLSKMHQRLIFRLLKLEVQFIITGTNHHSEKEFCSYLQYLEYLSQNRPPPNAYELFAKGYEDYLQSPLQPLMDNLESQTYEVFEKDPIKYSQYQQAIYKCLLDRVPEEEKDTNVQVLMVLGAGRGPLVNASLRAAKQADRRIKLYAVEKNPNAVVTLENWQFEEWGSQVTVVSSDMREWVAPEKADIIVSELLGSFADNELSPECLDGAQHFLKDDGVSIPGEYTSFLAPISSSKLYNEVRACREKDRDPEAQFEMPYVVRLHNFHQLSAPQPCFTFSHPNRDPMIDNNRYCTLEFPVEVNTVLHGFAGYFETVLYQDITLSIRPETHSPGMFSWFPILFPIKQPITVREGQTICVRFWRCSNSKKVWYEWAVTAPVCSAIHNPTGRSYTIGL
T1 sequence (Q9BQA1 whole entry partner): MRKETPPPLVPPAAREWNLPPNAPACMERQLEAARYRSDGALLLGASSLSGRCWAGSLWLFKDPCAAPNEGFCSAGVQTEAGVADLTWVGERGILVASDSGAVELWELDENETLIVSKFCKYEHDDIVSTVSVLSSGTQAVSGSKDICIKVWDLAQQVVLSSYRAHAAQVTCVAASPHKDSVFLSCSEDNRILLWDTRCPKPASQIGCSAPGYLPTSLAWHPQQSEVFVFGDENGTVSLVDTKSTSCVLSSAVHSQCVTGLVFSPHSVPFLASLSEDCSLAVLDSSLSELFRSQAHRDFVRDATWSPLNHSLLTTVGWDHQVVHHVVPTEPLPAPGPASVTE

Structure (SMILES) | IC50 [1] [nM] | IC50 [2] [nM] | MTAP intact/deleted ratio [2] | IC50 [3] [nM] | IC50 [4] [nM] | IC50 [5] [nM] | IC50 [6] [nM]
CCc1cc(NC(=O)C(=O)N2C[C@@H](C)CC[C@@H]2c2ccc(NC3CCN(C)CC3)nc2)cnc1N [Compound 1306, N-(6-Amino-5-ethyl-3-pyridyl)-2-[(2R,5S)-5-methyl-2-[6-[(1-methyl-4-piperidyl)amino]-3-pyridyl]-1-piperidyl]-2-oxo-acetamide] | 100 to 1000 | < 100 | A (an IC50 ratio greater than or equal to 10 fold) | 50 to 500 | < 1000 | < 50 | < 50
Cc1ncc(NC(=O)C(=O)N2C[C@@H](C)CC[C@@H]2c2ccc3sc(C4CCN(C)CC4)nc3c2)cc1C1COC1 [Compound 1309, 2-((2R,5S)-5-methyl-2-(2-(1-methylpiperidin-4-yl)benzo[d]thiazol-5-yl)piperidin-1-yl)-N-(6-methyl-5-(oxetan-3-yl)pyridin-3-yl)-2-oxoacetamide] | < 100 | < 100 | A (an IC50 ratio greater than or equal to 10 fold) | < 50 | < 1000 | < 50 | < 50
Cc1cc(NC(=O)C(=O)N2C[C@@H](C)CC[C@@H]2c2ccc3sc(C4CC(C)(C)N(C)C(C)(C)C4)nc3c2)cnc1C [Compound 1315, N-(5,6-dimethylpyridin-3-yl)-2-((2R,5S)-5-methyl-2-(2-(1,2,2,6,6-pentamethylpiperidin-4-yl)benzo[d]thiazol-5-yl)piperidin-1-yl)-2-oxoacetamide] | 100 to 1000 | < 100 | A (an IC50 ratio greater than or equal to 10 fold) | < 50 | < 1000 | < 50 | < 50
COc1ncc(NC(=O)C(=O)N2C[C@@H](C)CC[C@@H]2c2ccc3sc(C[C@@H](C)N(C)C)nc3c2)cc1C(N)=O [Compound 1317, 5-(2-((2R,5S)-2-(2-((R)-2-(dimethylamino)propyl)benzo[d]thiazol-5-yl)-5-methylpiperidin-1-yl)-2-oxoacetamido)-2-methoxynicotinamide] | < 100 | < 100 | A (an IC50 ratio greater than or equal to 10 fold) | 50 to 500 | < 1000 | < 50 | < 50
CCc1cc(NC(=O)C(=O)N2C[C@@H](C)CC[C@@H]2c2ccc3nn(C4CCN(C)CC4)cc3c2)cnc1N [Compound 1321, N-(6-Amino-5-ethyl-3-pyridyl)-2-[(2R,5S)-5-methyl-2-[2-(1-methyl-4-piperidyl)indazol-5-yl]-1-piperidyl]-2-oxo-acetamide] | < 100 | < 100 | A (an IC50 ratio greater than or equal to 10 fold) | < 50 | < 1000 | < 50 | < 50
CCc1cc(NC(=O)C(=O)N2C[C@@H](C)CC[C@@H]2c2ccc3sc([C@@H](C)CN(C)C)nc3c2)cnc1N [Compound 1324, N-(6-amino-5-ethylpyridin-3-yl)-2-((2R,5S)-2-(2-(1-(dimethylamino)propan-2-yl)benzo[d]thiazol-5-yl)-5-methylpiperidin-1-yl)-2-oxoacetamide] | < 100 | < 100 | A (an IC50 ratio greater than or equal to 10 fold) | < 50 | < 1000 | < 50 | < 50
CCc1cc(NC(=O)C(=O)N2C[C@@H](C)CC[C@@H]2c2ccc3sc(CN(C)C)nc3c2)cnc1N [Compound 1325, N-(6-amino-5-ethylpyridin-3-yl)-2-((2R,5S)-2-(2-((dimethylamino)methyl)benzo[d]thiazol-5-yl)-5-methylpiperidin-1-yl)-2-oxoacetamide] | < 100 | < 100 | A (an IC50 ratio greater than or equal to 10 fold) | 50 to 500 | < 1000 | < 50 | < 50
Cc1ncc(NC(=O)C(=O)N2C[C@@H](C)CC[C@@H]2c2ccc3sc(C4CCN(C)CC4)nc3c2)cc1C(N)=O [Compound 1326, 2-methyl-5-(2-((2R,5S)-5-methyl-2-(2-(1-methylpiperidin-4-yl)benzo[d]thiazol-5-yl)piperidin-1-yl)-2-oxoacetamido)nicotinamide] | 100 to 1000 | < 100 | A (an IC50 ratio greater than or equal to 10 fold) | < 50 | < 1000 | < 50 | < 50
CCc1cc(NC(=O)C(=O)N2C[C@@H](C)CC[C@@H]2c2ccc3sc(C4CCN(C5CC5)CC4)nc3c2)cnc1N [Compound 1330, N-(6-amino-5-ethylpyridin-3-yl)-2-((2R,5S)-2-(2-(1-cyclopropylpiperidin-4-yl)benzo[d]thiazol-5-yl)-5-methylpiperidin-1-yl)-2-oxoacetamide] | < 100 | < 100 | A (an IC50 ratio greater than or equal to 10 fold) | < 50 | < 1000 | < 50 | < 50
CCN1CCC(c2nc3cc([C@H]4CC[C@H](C)CN4C(=O)C(=O)Nc4cnc(N)c(C)c4)ccc3s2)CC1 [Compound 1335, N-(6-amino-5-methylpyridin-3-yl)-2-((2R,5S)-2-(2-(1-ethylpiperidin-4-yl)benzo[d]thiazol-5-yl)-5-methylpiperidin-1-yl)-2-oxoacetamide] | < 100 | < 100 | A (an IC50 ratio greater than or equal to 10 fold) | < 50 | < 1000 | < 50 | < 50
CCc1cc(NC(=O)C(=O)N2C[C@@H](C)CC[C@@H]2c2ccc3sc([C@H]4C[C@@H]5CN(C)C[C@@H]5C4)nc3c2)cnc1N [Compound 1338, N-(6-amino-5-ethylpyridin-3-yl)-2-((2R,5S)-5-methyl-2-(2-((3aR,5r,6aS)-2-methyloctahydrocyclopenta[c]pyrrol-5-yl)benzo[d]thiazol-5-yl)piperidin-1-yl)-2-oxoacetamide] | < 100 | < 100 | A (an IC50 ratio greater than or equal to 10 fold) | < 50 | < 1000 | < 50 | < 50
CCc1cc(NC(=O)C(=O)N2C[C@@H](C)CC[C@@H]2c2ccc3sc(C4CC(C)(C)N(C)C(C)(C)C4)nc3c2)cnc1N [Compound 1340, N-(6-amino-5-ethylpyridin-3-yl)-2-((2R,5)-5-methyl-2-(2-(1,2,2,6,6-pentamethylpiperidin-4-yl)benzo[d]thiazol-5-yl)piperidin-1-yl)-2-oxoacetamide] | < 100 | < 100 | A (an IC50 ratio greater than or equal to 10 fold) | 50 to 500 | < 1000 | < 50 | < 50
COc1ncc(NC(=O)C(=O)N2C[C@@H](C)CC[C@@H]2c2ccc(CCN(C)C)c(Cl)c2)cc1C(N)=O [Compound 1341, 5-(2-((2R,5S)-2-(3-chloro-4-(2-(dimethylamino)ethyl)phenyl)-5-methylpiperidin-1-yl)-2-oxoacetamido)-2-methoxynicotinamide] | > 1000 | < 100 |  | 50 to 500 | < 1000 | < 50 | < 50
CCc1cc(NC(=O)C(=O)N2C[C@@H](C)CC[C@@H]2c2cccc([C@H]3CCN(C)C3)c2)cnc1N [Compound 1342, N-(6-amino-5-ethylpyridin-3-yl)-2-((2R,5S)-5-methyl-2-(3-(1-methylpyrrolidin-3-yl)phenyl)piperidin-1-yl)-2-oxoacetamide] | 100 to 1000 | < 100 | A (an IC50 ratio greater than or equal to 10 fold) | < 50 | < 1000 | < 50 | < 50
CCc1cc(NC(=O)C(=O)N2C[C@@H](C)CC[C@@H]2c2ccc3sc(C4(CN(C)C)CC4)nc3c2)cnc1N [Compound 1347, N-(6-amino-5-ethylpyridin-3-yl)-2-((2R,5S)-2-(2-(1-((dimethylamino)methyl)cyclopropyl)benzo[d]thiazol-5-yl)-5-methylpiperidin-1-yl)-2-oxoacetamide] | < 100 | < 100 | A (an IC50 ratio greater than or equal to 10 fold) | 50 to 500 | < 1000 | < 50 | < 50
